From the NIST ThermoML archive (doi:10.1016/j.jct.2017.05.001)

Experiment: wn = mass fraction of the nth substance listed
Settings: Liquid; for mass density: Vibrating tube method

OCCN(CCO)CCO [triethanolamine] + O
mass density [kg/m3]
Settings | w1 = 0.0992 | w1 = 0.2 | w1 = 0.2991 | w1 = 0.4
333.15 K, 130000 kPa | 1045.8 | 1059 | 1072.9 | 1088.3
333.15 K, 140000 kPa | 1049.1 | 1062.4 | 1076 | 1091.4
353.15 K, 100 kPa | 985.7 | 999.5 | 1013.6 | 1029.7
353.15 K, 500 kPa | 985.7 | 999.6 | 1013.7 | 1029.8
353.15 K, 1000 kPa | 985.9 | 999.8 | 1013.9 | 1030
353.15 K, 2000 kPa | 986.4 | 1000.1 | 1014.3 | 1030.4
353.15 K, 5000 kPa | 987.7 | 1001.5 | 1015.6 | 1031.7
353.15 K, 10000 kPa | 989.9 | 1003.7 | 1017.8 | 1033.9
353.15 K, 15000 kPa | 992.1 | 1005.8 | 1019.9 | 1035.8
353.15 K, 20000 kPa | 994.1 | 1007.8 | 1021.9 | 1037.9
353.15 K, 30000 kPa | 998.2 | 1011.9 | 1025.9 | 1041.9
353.15 K, 40000 kPa | 1002.4 | 1015.9 | 1029.9 | 1045.8
353.15 K, 50000 kPa | 1006.2 | 1019.8 | 1033.8 | 1049.5
353.15 K, 60000 kPa | 1010.2 | 1023.7 | 1037.6 | 1053.3
353.15 K, 70000 kPa | 1014 | 1027.4 | 1041.2 | 1056.9
353.15 K, 80000 kPa | 1017.6 | 1031.1 | 1044.8 | 1060.4
353.15 K, 90000 kPa | 1021.2 | 1034.5 | 1048.3 | 1063.8
353.15 K, 100000 kPa | 1024.8 | 1038.1 | 1051.8 | 1067.2
353.15 K, 110000 kPa | 1028.4 | 1041.5 | 1055.2 | 1070.5
353.15 K, 120000 kPa | 1031.8 | 1044.9 | 1058.5 | 1073.9
353.15 K, 130000 kPa | 1035.2 | 1048.2 | 1061.8 | 1077.1
353.15 K, 140000 kPa | 1038.4 | 1051.5 | 1065 | 1080.1
373.15 K, 100 kPa | 971.7 | 985.1 | 999.2 | 1014.6
373.15 K, 500 kPa | 971.9 | 985.3 | 999.3 | 1014.8
373.15 K, 1000 kPa | 972.2 | 985.5 | 999.6 | 1015
373.15 K, 2000 kPa | 972.6 | 986.1 | 1000.1 | 1015.5
373.15 K, 5000 kPa | 973.9 | 987.4 | 1001.5 | 1016.8
373.15 K, 10000 kPa | 976.3 | 989.7 | 1003.8 | 1019.1
373.15 K, 15000 kPa | 978.5 | 991.9 | 1006 | 1021.2
373.15 K, 20000 kPa | 980.6 | 994 | 1008.2 | 1023.4
373.15 K, 30000 kPa | 985.1 | 998.4 | 1012.5 | 1027.7
373.15 K, 40000 kPa | 989.4 | 1002.6 | 1016.8 | 1032
373.15 K, 50000 kPa | 993.4 | 1006.7 | 1020.7 | 1035.7
373.15 K, 60000 kPa | 997.4 | 1010.6 | 1024.6 | 1039.7
373.15 K, 70000 kPa | 1001.4 | 1014.5 | 1028.4 | 1043.5
373.15 K, 80000 kPa | 1005.3 | 1018.5 | 1032.4 | 1047.3
373.15 K, 90000 kPa | 1009.1 | 1022.1 | 1036 | 1050.8
373.15 K, 100000 kPa | 1012.7 | 1025.7 | 1039.5 | 1054.3
373.15 K, 110000 kPa | 1016.4 | 1029.4 | 1043.1 | 1057.9
373.15 K, 120000 kPa | 1019.9 | 1032.9 | 1046.8 | 1061.3
373.15 K, 130000 kPa | 1023.3 | 1036.2 | 1050.1 | 1064.6
373.15 K, 140000 kPa | 1026.8 | 1039.7 | 1053.4 | 1067.8
393.15 K, 100 kPa | 956.1 | 969.2 | 982.9 | 998.1
393.15 K, 500 kPa | 956.4 | 969.5 | 983.3 | 998.5
393.15 K, 1000 kPa | 956.6 | 969.7 | 983.5 | 998.6
393.15 K, 2000 kPa | 957.1 | 970.2 | 984 | 999.1
393.15 K, 5000 kPa | 958.6 | 971.7 | 985.5 | 1000.6
393.15 K, 10000 kPa | 961.1 | 974.2 | 988 | 1003.1
393.15 K, 15000 kPa | 963.4 | 976.5 | 990.3 | 1005.4
393.15 K, 20000 kPa | 965.9 | 978.9 | 992.7 | 1007.8
393.15 K, 30000 kPa | 970.4 | 983.5 | 997.3 | 1012.4
393.15 K, 40000 kPa | 974.9 | 988 | 1001.8 | 1016.7
393.15 K, 50000 kPa | 979.2 | 992.3 | 1006 | 1021
393.15 K, 60000 kPa | 983.5 | 996.5 | 1010.2 | 1025.2
393.15 K, 70000 kPa | 987.7 | 1000.7 | 1014.4 | 1029.3
393.15 K, 80000 kPa | 991.7 | 1004.6 | 1018.3 | 1033.1
393.15 K, 90000 kPa | 995.7 | 1008.6 | 1022.3 | 1037.1
393.15 K, 100000 kPa | 999.4 | 1012.3 | 1026.1 | 1040.7
393.15 K, 110000 kPa | 1003.3 | 1016.1 | 1029.8 | 1044.5
393.15 K, 120000 kPa | 1006.9 | 1019.8 | 1033.4 | 1048.1
393.15 K, 130000 kPa | 1010.4 | 1023.4 | 1036.9 | 1051.5
393.15 K, 140000 kPa | 1014.1 | 1026.9 | 1040.5 | 1055

viscosity [mPa·s]
Settings | w1 = 0.0992 | w1 = 0.1 | w1 = 0.2 | w1 = 0.2991 | w1 = 0.3 | w1 = 0.4
353.15 K, 100 kPa, Concentric cylinders viscometry | – | 0.469 | 0.569 | – | 0.81 | 1.125
353.15 K, 100 kPa, Falling or rolling sphere viscometry | 0.4585 | – | 0.5805 | 0.8052 | – | 1.124
353.15 K, 5000 kPa, Falling or rolling sphere viscometry | 0.451 | – | 0.5825 | 0.7994 | – | 1.125
353.15 K, 10000 kPa, Falling or rolling sphere viscometry | 0.4541 | – | 0.5878 | 0.8046 | – | 1.136
353.15 K, 15000 kPa, Falling or rolling sphere viscometry | 0.4547 | – | 0.5898 | 0.811 | – | 1.146
353.15 K, 20000 kPa, Falling or rolling sphere viscometry | 0.4578 | – | 0.5937 | 0.8144 | – | 1.154
353.15 K, 25000 kPa, Falling or rolling sphere viscometry | 0.4595 | – | 0.5975 | 0.821 | – | 1.164
353.15 K, 30000 kPa, Falling or rolling sphere viscometry | 0.4619 | – | 0.6006 | 0.8266 | – | 1.173
353.15 K, 40000 kPa, Falling or rolling sphere viscometry | 0.466 | – | 0.6068 | 0.8374 | – | 1.193
353.15 K, 60000 kPa, Falling or rolling sphere viscometry | 0.4738 | – | 0.6185 | 0.8576 | – | 1.229
353.15 K, 80000 kPa, Falling or rolling sphere viscometry | 0.4813 | – | 0.6313 | 0.8785 | – | 1.266
353.15 K, 100000 kPa, Falling or rolling sphere viscometry | 0.4891 | – | 0.6459 | 0.9019 | – | 1.306
373.15 K, 5000 kPa, Falling or rolling sphere viscometry | 0.3584 | – | 0.444 | 0.5867 | – | 0.7909
373.15 K, 10000 kPa, Falling or rolling sphere viscometry | 0.356 | – | 0.4475 | 0.5894 | – | 0.8001
373.15 K, 15000 kPa, Falling or rolling sphere viscometry | 0.3581 | – | 0.451 | 0.5951 | – | 0.809
373.15 K, 20000 kPa, Falling or rolling sphere viscometry | 0.3595 | – | 0.4534 | 0.5996 | – | 0.819
373.15 K, 25000 kPa, Falling or rolling sphere viscometry | 0.3618 | – | 0.4562 | 0.6046 | – | 0.8242
373.15 K, 30000 kPa, Falling or rolling sphere viscometry | 0.3632 | – | 0.4601 | 0.6109 | – | 0.8363
373.15 K, 40000 kPa, Falling or rolling sphere viscometry | 0.3659 | – | 0.4638 | 0.6193 | – | 0.8525
373.15 K, 60000 kPa, Falling or rolling sphere viscometry | 0.3738 | – | 0.4753 | 0.6379 | – | 0.8789
373.15 K, 80000 kPa, Falling or rolling sphere viscometry | 0.3807 | – | 0.4864 | 0.655 | – | 0.9114
373.15 K, 100000 kPa, Falling or rolling sphere viscometry | 0.3871 | – | 0.4953 | 0.6721 | – | 0.9403
393.15 K, 5000 kPa, Falling or rolling sphere viscometry | 0.2913 | – | 0.3551 | 0.4515 | – | 0.5873
393.15 K, 10000 kPa, Falling or rolling sphere viscometry | 0.2912 | – | 0.3579 | 0.4583 | – | 0.5948
393.15 K, 15000 kPa, Falling or rolling sphere viscometry | 0.2933 | – | 0.3633 | 0.4629 | – | 0.6019
393.15 K, 20000 kPa, Falling or rolling sphere viscometry | 0.295 | – | 0.362 | 0.4675 | – | 0.609
393.15 K, 25000 kPa, Falling or rolling sphere viscometry | 0.2963 | – | 0.3674 | 0.4703 | – | 0.6136
393.15 K, 30000 kPa, Falling or rolling sphere viscometry | 0.2988 | – | 0.3659 | 0.4738 | – | 0.6246
393.15 K, 40000 kPa, Falling or rolling sphere viscometry | 0.3022 | – | 0.3704 | 0.4822 | – | 0.6362
393.15 K, 60000 kPa, Falling or rolling sphere viscometry | 0.308 | – | 0.3798 | 0.4973 | – | 0.6588
393.15 K, 80000 kPa, Falling or rolling sphere viscometry | 0.3138 | – | 0.3888 | 0.5121 | – | 0.6835
393.15 K, 100000 kPa, Falling or rolling sphere viscometry | 0.32 | – | 0.3982 | 0.5378 | – | 0.7054
